In ChEMBL document CHEMBL1156891, “Pyrrolidine amides of pyrazolodihydropyrimidines as potent and selective KV1.5 blockers” (Bioorg Med Chem Lett, 2010):

Experiments:
[1] = biological target: Potassium voltage-gated channel subfamily A member 5 (Homo sapiens, UniProt P22460); assay: Inhibition of human Kv1.5 channel expressed in mouse L929 cells; format: cell-based; settings: for inhibition: concentration not given here
Oryctolagus cuniculus [2] = assay: Plasma concentration in rabbit at 10 mg/kg, iv; format: ADME, organism-based; parameters: dose 10 mg/kg, route intravenous; settings: in vivo
[3] = Fraction unbound in rabbit plasma at 10 mg/kg, iv; format: ADME, organism-based, Oryctolagus cuniculus; parameters: dose 10 mg/kg, route intravenous
Oryctolagus cuniculus [4] = assay: Prolongation of atrial effective refractory period in rabbit at 10 mg/kg, iv relative to vehicle control; format: functional, Cardiac atrium
[5] = Oral bioavailability in rat at 20 µmol/kg, po; settings: in vivo
Oryctolagus cuniculus [6] = assay: Prolongation of atrial effective refractory period in rabbit at 0.3 mg/kg, iv relative to vehicle control; format: functional, Cardiac atrium
Oryctolagus cuniculus [7] = assay: Prolongation of atrial effective refractory period in rabbit at 3 mg/kg, iv relative to vehicle control; format: functional, Cardiac atrium
[8] = Terminal half life in dog at 10 µmol/kg, intra-arterial infusion; settings: in vivo, read-out: beta t1/2 (converted)
Oryctolagus cuniculus [9] = assay: Prolongation of atrial effective refractory period in rabbit at 1 mg/kg, iv relative to vehicle control; format: functional, Cardiac atrium
[10] = Oral bioavailability in dog at 20 µmol/kg, po; settings: in vivo
[11] = Volume of distribution at steady state in rat at 10 µmol/kg, intra-arterial infusion; settings: in vivo, read-out: Vdss
[12] = Clearance in rat at 10 µmol/kg, intra-arterial infusion; settings: in vivo
[13] = Clearance in dog at 10 µmol/kg, intra-arterial infusion; settings: in vivo
[14] = Volume of distribution at steady state in dog at 10 µmol/kg, intra-arterial infusion; settings: in vivo, read-out: Vdss
[15] = Terminal half life in rat at 10 µmol/kg, intra-arterial infusion; settings: in vivo, read-out: beta t1/2 (converted)

Sequence of Potassium voltage-gated channel subfamily A member 5 (P22460 whole entry): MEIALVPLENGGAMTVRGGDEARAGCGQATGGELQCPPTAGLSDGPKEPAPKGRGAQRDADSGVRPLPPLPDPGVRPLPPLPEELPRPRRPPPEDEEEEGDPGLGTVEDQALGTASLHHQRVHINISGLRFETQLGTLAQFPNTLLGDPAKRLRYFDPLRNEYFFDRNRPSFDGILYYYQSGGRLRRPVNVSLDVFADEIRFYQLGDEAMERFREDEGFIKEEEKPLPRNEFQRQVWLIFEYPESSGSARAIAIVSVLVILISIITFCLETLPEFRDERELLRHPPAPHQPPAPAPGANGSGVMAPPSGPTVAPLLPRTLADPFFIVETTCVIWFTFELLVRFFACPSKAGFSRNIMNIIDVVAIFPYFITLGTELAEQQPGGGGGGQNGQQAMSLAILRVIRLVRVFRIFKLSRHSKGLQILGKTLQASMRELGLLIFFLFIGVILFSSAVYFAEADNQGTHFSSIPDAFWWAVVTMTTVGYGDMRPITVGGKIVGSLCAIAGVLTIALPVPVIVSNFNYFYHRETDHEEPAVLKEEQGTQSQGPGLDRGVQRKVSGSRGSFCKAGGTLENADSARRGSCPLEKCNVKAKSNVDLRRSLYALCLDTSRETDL

IC50 [1] [nM] | inhibition [1] [%] | SMILES | other results
310 |  | CC1=C(C(=O)N2CCCC2c2ccncc2)C(c2ccc(Cl)c(Cl)c2)n2nccc2N1 (centres undefined) | 
160 |  | CC1=C(C(=O)N2CCC(c3ccc(F)cc3)C2)C(c2ccc(Cl)c(Cl)c2)n2nccc2N1 (centres undefined) | 
> 1000 | 4 | CC1=C(C(=O)N2CCC[C@H]2c2nnc(N)s2)C(c2ccc(Cl)c(Cl)c2)n2nccc2N1 (some centres undefined) | 
> 1000 | 11 | CC1=C(C(=O)N2CCC[C@H]2c2n[nH]c(=O)n2C)C(c2ccc(Cl)c(Cl)c2)n2nccc2N1 (some centres undefined) | 
150 |  | CC1=C(C(=O)N2CCCC2c2ccccc2)C(c2ccc(Cl)c(Cl)c2)n2nccc2N1 (centres undefined) | 
2100 |  | CC1=C(C(=O)N2CCCC2c2ccc(F)cc2)C(c2ccc(Cl)c(Cl)c2)n2nccc2N1 (mixture of isomers; 7a) | 
1800 |  | CC1=C(C(=O)N2CCCC2c2ccc(F)cc2)C(c2ccc(Cl)c(Cl)c2)n2nccc2N1 (mixture of isomers; 7b) | 
> 1000 |  | CC1=C(C(=O)N2CCC[C@H]2c2nc(C)no2)C(c2ccc(Cl)c(Cl)c2)n2nccc2N1 (stereo in doubt; 13a) [listing 1 of 2 here] | 
 | 22 | CC1=C(C(=O)N2CCC[C@H]2c2nc(C)no2)C(c2ccc(Cl)c(Cl)c2)n2nccc2N1 (stereo in doubt; 13a) [listing 2 of 2 here] | 
160 |  | CC1=C(C(=O)N2CCC[C@H]2c2nc(C)no2)C(c2ccc(Cl)c(Cl)c2)n2nccc2N1 (stereo in doubt; 13b) | 
> 1000 |  | CC1=C(C(=O)N2CCC[C@H]2c2nnn[nH]2)C(c2ccc(Cl)c(Cl)c2)n2nccc2N1 (stereo in doubt; 14a) [listing 1 of 2 here] | 
 | 4 | CC1=C(C(=O)N2CCC[C@H]2c2nnn[nH]2)C(c2ccc(Cl)c(Cl)c2)n2nccc2N1 (stereo in doubt; 14a) [listing 2 of 2 here] | 
 | 8 | CC1=C(C(=O)N2CCC[C@H]2c2nnn[nH]2)C(c2ccc(Cl)c(Cl)c2)n2nccc2N1 (stereo in doubt; 14b) | 
> 1000 |  | CC1=C(C(=O)N2CCC[C@H]2c2nnc[nH]2)C(c2ccc(Cl)c(Cl)c2)n2nccc2N1 (stereo in doubt; 17a) [listing 1 of 2 here] | 
 | 21 | CC1=C(C(=O)N2CCC[C@H]2c2cc(C)no2)C(c2ccc(Cl)c(Cl)c2)n2nccc2N1 (stereo in doubt; 20a) [listing 2 of 2 here] | 
> 1000 |  | CC1=C(C(=O)N2CCC[C@H]2c2cc(C)on2)C(c2ccc(Cl)c(Cl)c2)n2nccc2N1 (stereo in doubt; 21a) [listing 1 of 2 here] | 
90 |  | CC1=C(C(=O)N2CCC[C@H]2c2cc(C)on2)C(c2ccc(Cl)c(Cl)c2)n2nccc2N1 (stereo in doubt; 21b) | 

The remaining lines, values behind:

SMILES | IC50 [1] [nM] | inhibition [1] [%] | other results
COC[C@H]1CCCN1C(=O)C1=C(C)Nc2ccnn2C1c1ccc(Cl)c(Cl)c1 (some centres undefined) | > 1000 | 32 | 
CC1=C(C(=O)N2CCC[C@H]2c2nnn(C)n2)C(c2ccc(Cl)c(Cl)c2)n2nccc2N1 (some centres undefined) | 480 |  | 
CC1=C(C(=O)N2CCCC2c2cccnc2)C(c2ccc(Cl)c(Cl)c2)n2nccc2N1 (centres undefined) | > 1000 | 35 | 
CC1=C(C(=O)N2CCCC2c2ccccn2)C(c2ccc(Cl)c(Cl)c2)n2nccc2N1 (centres undefined) | 660 |  | 
COC(=O)[C@@H]1CCCN1C(=O)C1=C(C)Nc2ccnn2C1c1ccc(Cl)c(Cl)c1 (some centres undefined) | 150 |  | 
CC1=C(C(=O)N2CCC[C@H]2c2nc(C)c(C)s2)C(c2ccc(Cl)c(Cl)c2)n2nccc2N1 (some centres undefined) | 300 |  | 
CC1=C(C(=O)N2CCCC2c2ccc(F)cc2)C(c2ccc(Cl)c(Cl)c2)n2nccc2N1 (mixture of isomers; 7) | 70 |  | 
CC1=C(C(=O)N2CCCC2c2ccc(F)cc2)C(c2ccc(Cl)c(Cl)c2)n2nccc2N1 (mixture of isomers; 7c) | 150 |  | 
CC1=C(C(=O)N2CCC[C@H]2c2nnc[nH]2)C(c2ccc(Cl)c(Cl)c2)n2nccc2N1 (stereo in doubt; 17a) [listing 2 of 2 here] |  | 19 | 
CC1=C(C(=O)N2CCC[C@H]2c2nnc[nH]2)C(c2ccc(Cl)c(Cl)c2)n2nccc2N1 (stereo in doubt; 17b) |  | 3 | 
CC1=C(C(=O)N2CCC[C@H]2c2cc(C)no2)C(c2ccc(Cl)c(Cl)c2)n2nccc2N1 (stereo in doubt; 20a) [listing 1 of 2 here] | > 1000 |  | 
CC1=C(C(=O)N2CCC[C@H]2c2cc(C)no2)C(c2ccc(Cl)c(Cl)c2)n2nccc2N1 (stereo in doubt; 20b) | 110 |  | 
CC1=C(C(=O)N2CCC[C@H]2c2cc(C)on2)C(c2ccc(Cl)c(Cl)c2)n2nccc2N1 (stereo in doubt; 21a) [listing 2 of 2 here] |  | 38 | 
CC1=C(C(=O)N2CCC[C@H]2c2ccc(F)cc2)[C@@H](c2ccc(Cl)c(Cl)c2)n2nccc2N1 [BMS-394136] | 50 |  | concentration (Oryctolagus cuniculus [2]): 7 µM; fraction unbound [3]: 0.03; Activity (Oryctolagus cuniculus [4]): 6.95%; bioavailability [5]: 51%; Activity (Oryctolagus cuniculus [6]): 0.13%; Activity (Oryctolagus cuniculus [7]): 1.37%; half-life [8]: 1.5 h; Activity (Oryctolagus cuniculus [9]): 0.37%; bioavailability [10]: 37%; Vd [11]: 1.6 L/kg; clearance [12]: 35 mL/min/kg; clearance [13]: 42 mL/min/kg; Vd [14]: 2.1 L/kg; half-life [15]: 0.57 h
